The target in assay [1] is T1, K-Ras G12D (Homo sapiens, UniProt P01116, G12D).
T1 construct: made in house; host or cells: E. coli BL21 (DE3)
Description: HTRF resonance energy transfer assay, K-Ras G12D / SOS1 interaction. In kind it is biochemical. The note with it: HTRF assay of Example 5; read-out: IC50 against K-Ras G12D. Put shortly: (§1)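 Buffer about 5 mM HEPES pH 7.4 with ~150 mM NaCl, ~1 mM DTT, 0.05% BSA, 0.0025% (v/v) Igepal. Protein constructs used at molarity matching the IC50 range studied (e.g. ~500 nM). FRET between tagged K-Ras and hSOS1 measured after short incubation.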
(In general: Time-resolved FRET reads energy transfer from a long-lived donor to a nearby acceptor.)

The target in assay [2] is T2, K-Ras G12S (Homo sapiens, UniProt P01116, G12S).
T2 construct: made in house; host or cells: E. coli BL21 (DE3)
As to the kind of experiment: HTRF resonance energy transfer assay, K-Ras G12S / SOS1 interaction. The note with it: HTRF assay of Example 5; read-out: IC50 against K-Ras G12S. The class given is biochemical. The method, boiled down: as §1

Assay [3] has as its target T3, K-Ras G12V (Homo sapiens, UniProt P01116, G12V).
T3 construct: made in house; host or cells: E. coli BL21 (DE3)
Description: HTRF resonance energy transfer assay, K-Ras G12V / SOS1 interaction. In kind it is biochemical. The note with it: HTRF assay of Example 5; read-out: IC50 against K-Ras G12V. The method, boiled down:
as §1

Assay [4] has as its target T4, K-Ras WT (Homo sapiens, UniProt P01116).
T4 construct: made in house; host or cells: E. coli BL21 (DE3)
Description: HTRF resonance energy transfer assay, K-Ras WT / SOS1 interaction. As to conditions: HTRF assay of Example 5; read-out: IC50 against K-Ras WT. In kind it is biochemical. Put shortly: as §1

Assay [5] concerns GP2D cells. As to the kind of experiment: Ras cellular assay, growth of cells with K-Ras G12D mutation (CellTiter-Glo). The class given is cell-based. The note with it: cell growth, Example 9, G12D mutation, read-out: IC50 against GP2D cells. (ATP-based viability assays read luminescence as a measure of living cells.)
In assay [6] the test system is A549 cells. Description: Ras cellular assay, growth of cells with K-Ras G12S mutation (CellTiter-Glo). As to conditions: Homo sapiens, cell growth, Example 9, G12S mutation, read-out: IC50 against A549 cells. In kind it is cell-based. The method, boiled down:
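Growth inhibition IC50 values come from four-parameter fits of CellTiter-Glo luminescence, read about 6 days after compound addition. G12S-mutant A549 cells (e.g. 800/well, RPMI-1640 + 10% heat-inactivated FBS) were plated in tissue-culture-treated or ultra-low-attachment 384-well format. Dosing began the following day with serial dilutions, e.g. 10 points, 3-fold.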

For assay [7], the system named is SW620 cells. Description: Ras cellular assay, growth of cells with K-Ras G12V mutation (CellTiter-Glo). In kind it is cell-based. The note with it: Homo sapiens, SW-620; cell growth, Example 9, G12V mutation; read-out: IC50 against SW620 cells. Put shortly: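 IC50 values came from a four-parameter fit of CellTiter-Glo viability, read roughly 6 days after dosing with e.g. a 10-point threefold dilution series. G12V-mutant SW620 cells (e.g. 800 per well) had been plated the previous day in RPMI-1640/10% heat-inactivated FBS, on tissue culture-treated or ultra-low attachment plates.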

pIC50: −log10 of the molar value. A value given as a limit tells only on which side of the number the result lay.

Here are results for 10 compounds from US12209102B2, “Heterocyclic compounds and uses thereof” (Kumquat Biosciences Inc., priority 2022, dated 2025).

T2 sequence (P01116 1-188 isoform P01116-2 G12S): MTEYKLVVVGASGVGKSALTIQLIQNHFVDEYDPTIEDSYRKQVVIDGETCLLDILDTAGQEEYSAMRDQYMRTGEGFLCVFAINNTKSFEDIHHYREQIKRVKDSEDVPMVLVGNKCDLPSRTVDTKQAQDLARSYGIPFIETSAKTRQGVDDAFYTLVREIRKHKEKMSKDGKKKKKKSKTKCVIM
T3 sequence (P01116 1-188 isoform P01116-2 G12V): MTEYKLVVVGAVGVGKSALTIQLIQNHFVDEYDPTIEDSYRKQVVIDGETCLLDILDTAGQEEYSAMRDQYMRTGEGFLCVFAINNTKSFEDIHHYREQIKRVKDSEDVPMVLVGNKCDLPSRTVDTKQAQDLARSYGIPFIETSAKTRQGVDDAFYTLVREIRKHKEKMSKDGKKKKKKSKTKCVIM
T1 sequence (P01116 1-188 isoform P01116-2 G12D): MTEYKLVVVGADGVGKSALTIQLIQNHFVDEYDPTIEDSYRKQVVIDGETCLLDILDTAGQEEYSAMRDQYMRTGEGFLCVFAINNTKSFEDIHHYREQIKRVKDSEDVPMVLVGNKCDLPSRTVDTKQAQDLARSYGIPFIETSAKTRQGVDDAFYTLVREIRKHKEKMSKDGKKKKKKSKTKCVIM
T4 sequence (P01116 1-188 isoform P01116-2): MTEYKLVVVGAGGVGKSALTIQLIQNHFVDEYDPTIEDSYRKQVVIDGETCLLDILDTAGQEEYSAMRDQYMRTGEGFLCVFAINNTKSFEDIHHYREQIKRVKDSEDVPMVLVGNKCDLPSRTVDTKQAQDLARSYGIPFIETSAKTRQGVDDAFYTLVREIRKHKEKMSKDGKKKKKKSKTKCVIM

Broadly, the pIC50 is the negative decadic logarithm of the IC50, by convention in mol/L. For `COC1CN(C(=O)N2CCC(N3CCOc4c(Cl)c(-c5ccc(F)c6sc(N)c(C#N)c56)c(F)c5nc(OC[C@@]67CCCN6C[C@H](F)C7)nc3c45)C2)C1` (stereo partly drawn) [Compound 834, 2-amino-4-(8-chloro-10-fluoro-2-(((2R,7aS)-2-fluorotetrahydro-1H-pyrrolizin-7a(5H)-yl)methoxy)-4-(1-(3-methoxyazetidine-1-carbonyl)pyrrolidin-3-yl)-5,6-dihydro-4H-[1,4]oxazepino[5,6,7-de]quinazolin-9-yl)-7-fluorobenzo[b]thiophene-3-carbonitrile], the pIC50 is above 7.00 in assay [1]; above 7.00 in assay [2]; above 7.00 in assay [3]; above 7.00 in assay [4]; above 6.30 in assay [5]; above 5.30 in assay [6]. Besides, the pIC50 in assay [7] is above 5.30.
On to `C[C@H]1COc2c(Cl)c(-c3ccc(F)c4sc(N)c(C#N)c34)c(F)c3nc(OC[C@@]45CCCN4C[C@H](F)C5)nc(c23)N1CCC(F)F` [Compound 835, 2-amino-4-((5S)-8-chloro-4-(3,3-difluoropropyl)-10-fluoro-2-(((2R,7aS)-2-fluorotetrahydro-1H-pyrrolizin-7a(5H)-yl)methoxy)-5-methyl-5,6-dihydro-4H-[1,4]oxazepino[5,6,7-de]quinazolin-9-yl)-7-fluorobenzo[b]thiophene-3-carbonitrile], for which the pIC50 was above 7.00 in assay [1]; above 7.00 in assay [2]; above 7.00 in assay [3]; above 7.00 in assay [4]; above 6.30 in assay [5]; above 5.30 in assay [6]. For the same compound, the pIC50 in assay [7] was above 5.30.
On to `N#Cc1c(N)sc2c(F)ccc(-c3c(Cl)c4c5c(nc(OC[C@@]67CCCN6C[C@H](F)C7)nc5c3F)N(CC3CC3(F)F)CCO4)c12` (stereo partly drawn) [Compound 850, 2-amino-4-(8-chloro-4-((2,2-difluorocyclopropyl)methyl)-10-fluoro-2-(((2R,7aS)-2-fluorotetrahydro-1H-pyrrolizin-7a(5H)-yl)methoxy)-5,6-dihydro-4H-[1,4]oxazepino[5,6,7-de]quinazolin-9-yl)-7-fluorobenzo[b]thiophene-3-carbonitrile], for which the negative-log IC50 (pIC50) is above 7.00 in assay [1]; above 7.00 in assay [2]; above 7.00 in assay [3]; above 7.00 in assay [4]; above 6.30 in assay [5]; above 5.30 in assay [6]. Further, the negative logarithm of the IC50 (pIC50) in assay [7] is above 5.30.
Turning to `N#Cc1c(N)sc2c(F)ccc(-c3c(Cl)c4c5c(nc(OC[C@@]67CCCN6C[C@H](F)C7)nc5c3F)N(C3CCCC(O)C3)CCO4)c12` (stereo partly drawn) [Compound 854, 2-amino-4-(8-chloro-10-fluoro-2-(((2R,7aS)-2-fluorotetrahydro-1H-pyrrolizin-7a(5H)-yl)methoxy)-4-(3-hydroxycyclohexyl)-5,6-dihydro-4H-[1,4]oxazepino[5,6,7-de]quinazolin-9-yl)-7-fluorobenzo[b]thiophene-3-carbonitrile], the negative-log IC50 (pIC50) in assay [1] is above 7.00; in assay [2], above 7.00; in assay [3] it was above 7.00; in assay [4] it was above 7.00; in assay [5], above 6.30; in assay [6], above 5.30. Besides, the pIC50 in assay [7] was above 5.30.
Turning to `N#Cc1c(N)sc2c(F)ccc(-c3c(Cl)c4c5c(nc(OC[C@@]67CCCN6C[C@H](F)C7)nc5c3F)N(C3CCN(C(=O)C5CC(C(F)F)C5)C3)CCO4)c12` (stereo partly drawn) [Compound 864, 2-amino-4-(8-chloro-4-(1-(3-(difluoromethyl)cyclobutane-1-carbonyl)pyrrolidin-3-yl)-10-fluoro-2-(((2R,7aS)-2-fluorotetrahydro-1H-pyrrolizin-7a(5H)-yl)methoxy)-5,6-dihydro-4H-[1,4]oxazepino[5,6,7-de]quinazolin-9-yl)-7-fluorobenzo[b]thiophene-3-carbonitrile], the pIC50 in assay [1] was above 7.00; in assay [2], above 7.00; in assay [3] it was above 7.00; in assay [4] it was above 7.00; in assay [5] it was above 6.30; in assay [6] it was above 5.30. Moreover, the negative logarithm of the IC50 (pIC50) in assay [7] is above 5.30.
`N#Cc1c(N)sc2c(F)ccc(-c3c(Cl)c4c5c(nc(OC[C@@]67CCCN6C[C@H](F)C7)nc5c3F)N(CC3(O)CC3)CCO4)c12` [Compound 868, 2-amino-4-(8-chloro-10-fluoro-2-(((2R,7aS)-2-fluorotetrahydro-1H-pyrrolizin-7a(5H)-yl)methoxy)-4-((1-hydroxycyclopropyl)methyl)-5,6-dihydro-4H-[1,4]oxazepino[5,6,7-de]quinazolin-9-yl)-7-fluorobenzo[b]thiophene-3-carbonitrile]: the pIC50 is above 7.00 in assay [1]; above 7.00 in assay [2]; above 7.00 in assay [3]; above 7.00 in assay [4]; above 6.30 in assay [5]; above 5.30 in assay [6]. For the same compound, in assay [7], the negative-log IC50 (pIC50) was above 5.30.
In the case of `N#Cc1c(N)sc2c(F)ccc(-c3c(Cl)c4c5c(nc(OC[C@@]67CCCN6C[C@H](F)C7)nc5c3F)N(C3CCN(C(=O)CC5CCOCC5)C3)CCO4)c12` (stereo partly drawn) [Compound 869, 2-amino-4-(8-chloro-10-fluoro-2-(((2R,7aS)-2-fluorotetrahydro-1H-pyrrolizin-7a(5H)-yl)methoxy)-4-(1-(2-(tetrahydro-2H-pyran-4-yl)acetyl)pyrrolidin-3-yl)-5,6-dihydro-4H-[1,4]oxazepino[5,6,7-de]quinazolin-9-yl)-7-fluorobenzo[b]thiophene-3-carbonitrile], the pIC50 is above 7.00 in assay [1]; above 7.00 in assay [2]; above 7.00 in assay [3]; above 7.00 in assay [4]; above 6.30 in assay [5]; above 5.30 in assay [6]. In addition, the negative logarithm of the IC50 (pIC50) in assay [7] is above 5.30.
For the compound `N#Cc1c(N)sc2c(F)ccc(-c3c(Cl)c4c5c(nc(OC[C@@]67CCCN6C[C@H](F)C7)nc5c3F)N(C3COCC3O)CCO4)c12` (stereo partly drawn) [Compound 874, 2-amino-4-(8-chloro-10-fluoro-2-(((2R,7aS)-2-fluorotetrahydro-1H-pyrrolizin-7a(5H)-yl)methoxy)-4-(4-hydroxytetrahydrofuran-3-yl)-5,6-dihydro-4H-[1,4]oxazepino[5,6,7-de]quinazolin-9-yl)-7-fluorobenzo[b]thiophene-3-carbonitrile], the pIC50 in assay [1] is above 7.00; in assay [2], above 7.00; in assay [3] it was above 7.00; in assay [4], above 7.00; in assay [5] it was above 6.30; in assay [6], above 5.30. In assay [7], the pIC50 was above 5.30.
`COC1CC(C(=O)N2CCC(N3CCOc4c(Cl)c(-c5ccc(F)c6sc(N)c(C#N)c56)c(F)c5nc(OC[C@@]67CCCN6C[C@H](F)C7)nc3c45)C2)C1` (stereo partly drawn) [Compound 881, 2-amino-4-(8-chloro-10-fluoro-2-(((2R,7aS)-2-fluorotetrahydro-1H-pyrrolizin-7a(5H)-yl)methoxy)-4-(1-(3-methoxycyclobutane-1-carbonyl)pyrrolidin-3-yl)-5,6-dihydro-4H-[1,4]oxazepino[5,6,7-de]quinazolin-9-yl)-7-fluorobenzo[b]thiophene-3-carbonitrile]: the pIC50 in assay [1] is above 7.00; in assay [2], above 7.00; in assay [3] it was above 7.00; in assay [4], above 7.00; in assay [5], above 6.30; in assay [6], above 5.30. The negative logarithm of the IC50 (pIC50) in assay [7] is above 5.30.
Turning to `CC(C)[C@H]1COc2c(Cl)c(-c3ccc(F)c4sc(N)c(C#N)c34)c(F)c3nc(OC[C@@]45CCCN4C[C@H](F)C5)nc(c23)N1CC(F)F` [Compound 884, 2-amino-4-((5S)-8-chloro-4-(2,2-difluoroethyl)-10-fluoro-2-(((2R,7aS)-2-fluorotetrahydro-1H-pyrrolizin-7a(5H)-yl)methoxy)-5-isopropyl-5,6-dihydro-4H-[1,4]oxazepino[5,6,7-de]quinazolin-9-yl)-7-fluorobenzo[b]thiophene-3-carbonitrile], the negative-log IC50 (pIC50) is above 7.00 in assay [1]; above 7.00 in assay [2]; above 7.00 in assay [3]; above 7.00 in assay [4]; above 6.30 in assay [5]; above 5.30 in assay [6]. Further, in assay [7], the negative-log IC50 (pIC50) is above 5.30.
